The target in one experiment is T1, human PepT1 (SLC15A1) (Homo sapiens, UniProt P46059).
T1 construct: host or cells: MDCK-II
T1 sequence (P46059 1-708): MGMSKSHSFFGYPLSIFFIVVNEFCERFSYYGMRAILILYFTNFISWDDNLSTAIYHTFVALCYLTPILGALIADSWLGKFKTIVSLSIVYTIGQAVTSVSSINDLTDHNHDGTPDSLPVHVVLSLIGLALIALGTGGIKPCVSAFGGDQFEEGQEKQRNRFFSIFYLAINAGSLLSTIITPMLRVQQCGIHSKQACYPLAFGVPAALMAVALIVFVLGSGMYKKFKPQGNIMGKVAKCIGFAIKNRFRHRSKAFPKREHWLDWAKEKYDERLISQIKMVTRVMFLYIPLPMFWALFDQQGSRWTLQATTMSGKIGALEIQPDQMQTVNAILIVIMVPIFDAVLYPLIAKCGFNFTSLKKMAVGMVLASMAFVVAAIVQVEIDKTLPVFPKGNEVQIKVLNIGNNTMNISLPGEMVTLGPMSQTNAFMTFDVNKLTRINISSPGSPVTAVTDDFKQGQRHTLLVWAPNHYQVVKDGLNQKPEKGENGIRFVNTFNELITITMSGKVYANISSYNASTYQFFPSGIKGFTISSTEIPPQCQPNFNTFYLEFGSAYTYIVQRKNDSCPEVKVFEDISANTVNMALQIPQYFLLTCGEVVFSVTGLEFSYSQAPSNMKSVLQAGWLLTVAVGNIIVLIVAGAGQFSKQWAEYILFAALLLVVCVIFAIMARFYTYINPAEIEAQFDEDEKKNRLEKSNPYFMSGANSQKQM
Put plainly: PepT1-mediated cellular uptake in transfected MDCK-II cells. In kind it is cell-based. Particulars: pH 5.5, 37 °C. Here is the method: Transport studies with human PepT1 (SLC15A1), LAT1 (SLC7A5) and MCT1 (SLC16A1) were conducted in MDCK-II cells expressing the human transporter or control cells expressing a vector with Green Fluorescence Protein. Cells were transfected using a proprietary, transient transfection system (OPTI-EXPRESSION Technology, BioIVT). The results from the control cells were used to correct for substrate permeation by routes other than the transporter being investigated in the study. […] Specifically, Net Transporter Mediated Substrate Uptake (pmol/min/cm^2) = (Cellular accumulation in the presence of the transporter) − (Mean cellular accumulation in the absence of the transporter). MDCK-II cells were maintained in DMEM with low glucose and 10% FBS. Cells were used at passages up to 40 were seeded at 60,000 ± 10,000 cells/well on 96-well plates approximately 24 h before transfection, and transport assays were performed approximately 48 h after transfection. […]
Transport studies with PepT1 were conducted in 96-well cell culture plate with wells containing a monolayer of MDCK-II cells grown on a permeable support and a corresponding 96-well receiver tray. […] Then a 30-µL sample was taken and mixed with 200 µL of scintillation fluid and scintillation counted (1450 Microbeta, Perkin-Elmer). […]

For the next experiment, the target named is T2, human MCT1 (SLC16A1) (Homo sapiens, UniProt P53985).
T2 construct: host or cells: MDCK-II
T2 sequence (P53985 1-500): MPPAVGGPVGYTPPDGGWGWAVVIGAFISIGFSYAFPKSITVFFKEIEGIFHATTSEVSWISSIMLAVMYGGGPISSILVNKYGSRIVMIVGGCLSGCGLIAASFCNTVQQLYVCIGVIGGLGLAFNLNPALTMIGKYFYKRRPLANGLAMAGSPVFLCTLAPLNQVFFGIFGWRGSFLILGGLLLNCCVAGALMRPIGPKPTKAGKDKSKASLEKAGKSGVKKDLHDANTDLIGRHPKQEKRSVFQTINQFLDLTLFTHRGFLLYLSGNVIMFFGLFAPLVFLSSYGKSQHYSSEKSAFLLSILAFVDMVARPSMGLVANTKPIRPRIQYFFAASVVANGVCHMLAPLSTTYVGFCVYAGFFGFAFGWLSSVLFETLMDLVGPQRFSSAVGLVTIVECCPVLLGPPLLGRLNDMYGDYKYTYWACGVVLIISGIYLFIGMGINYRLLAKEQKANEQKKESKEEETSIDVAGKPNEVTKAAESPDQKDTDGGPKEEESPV
Put plainly: MCT1-mediated cellular uptake in transfected MDCK-II cells. The settings on record: 1 min, room temperature, Michaelis-Menten fit. In kind it is cell-based. The method, then:
Transport studies with human PepT1 (SLC15A1), LAT1 (SLC7A5) and MCT1 (SLC16A1) were conducted in MDCK-II cells expressing the human transporter or control cells expressing a vector with Green Fluorescence Protein. Cells were transfected using a proprietary, transient transfection system (OPTI-EXPRESSION Technology, BioIVT). The results from the control cells were used to correct for substrate permeation by routes other than the transporter being investigated in the study. […] Specifically, Net Transporter Mediated Substrate Uptake (pmol/min/cm^2) = (Cellular accumulation in the presence of the transporter) − (Mean cellular accumulation in the absence of the transporter). MDCK-II cells were maintained in DMEM with low glucose and 10% FBS. Cells were used at passages up to 40 were seeded at 60,000 ± 10,000 cells/well on 96-well plates approximately 24 h before transfection, and transport assays were performed approximately 48 h after transfection. Transport studies in MDCK-II cells were conducted in 96-well insert plates with permeable membrane (0.4 µm) and receiver tray (Millipore MultiScreen Filter 96-well).
Transport studies with PepT1 were conducted in 96-well cell culture plate with wells containing a monolayer of MDCK-II cells grown on a permeable support and a corresponding 96-well receiver tray. Cell plates are maintained at 37 °C in 5% CO2 atmosphere prior to initiation of the transport experiment. Pre-incubation was conducted in HBSS, pH 7.4. The transport experiments were conducted in HBSS with Bis–Tris, pH 5.5, without phenol red. Both pre-incubation and incubation were conducted at 37 °C. All final assay solutions of probe substrate, reference inhibitor or test article contain 0.5% (v/v) DMSO (vehicle control). The culture plate insert […] was washed with warm HBSS three times and then blotted dry. The culture plate wells […] were washed with warm HBSS three times. […] Then a 30-µL sample was taken and mixed with 200 µL of scintillation fluid and scintillation counted (1450 Microbeta, Perkin-Elmer). […]

“Also recorded” adds a separate entry of the source.

For the compound `CC(=O)N[C@@H](CC(C)C)C(=O)O` [N-acetyl-L-leucine], the “substrate of PepT1 (uptake)” value on human PepT1 (SLC15A1) is given as “not transported; also recorded: not a substrate”. Also, the “Vmax MCT1 uptake” value at human MCT1 (SLC16A1) was found to be 224.

These data come from paper PMC8338929, “Acetylation turns leucine into a drug by membrane transporter switching” (Scientific Reports, 2021).
